Data set [1] relates to HCV replicon RNA (GenBank Accession No. AJ242654). Put plainly: HCV Replicon Assay (replicon RNA reduction and/or Fluc reporter signal). In kind it is cell-based, Hepatitis C virus. Conditions: Hepatitis C virus, 72 h, replicon-containing cells cultured with test compound for up to 3 days. The essentials: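 Bicistronic replicon-containing cells cultured with compound for up to 3 days, with interferon as positive control. Inhibition quantified by replicon RNA reduction and/or Fluc reporter signal; IC50 values generally derived from replicon RNA reduction.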
In general terms: Replicon systems follow genome replication, usually without infectious particles.

Consider `CC1(NS(=O)(=O)c2ccc(-c3c(C(N)=O)c4cc(C(F)(F)F)cnc4n3C3CCCCC3)cc2)CC1` [Cpd 442, 1-cyclohexyl-2-{4-[(1-methylcyclopropyl)sulfamoyl]phenyl}-5-(trifluoromethyl)-1H-pyrrolo[2,3-b]pyridine-3-carboxamide], for which the melting point (as a rule, the temperature of the solid-liquid transition) is 284 to 286 °C. The IC50 (as a rule, the concentration that gives 50% inhibition) in data set [1] is less than 500 nM.
Consider `CC(C)(C)NS(=O)(=O)c1ccc(-c2c(C(N)=O)c3cc(C(F)(F)F)cnc3n2C2CCCCC2)cc1` [Cpd 443, 2-[4-(tert-butylsulfamoyl)phenyl]-1-cyclohexyl-5-(trifluoromethyl)-1H-pyrrolo[2,3-b]pyridine-3-carboxamide], for which the melting point is 290 to 292 °C. In addition, the IC50 in data set [1] is less than 500 nM.
The matching figures for `C[C@@H](NS(=O)(=O)c1ccc(-c2c(C(N)=O)c3cc(C(F)(F)F)cnc3n2C2CCCCC2)cc1)C(F)(F)F` [Cpd 444, 1-cyclohexyl-5-(trifluoromethyl)-2-(4-{[(2R)-1,1,1-trifluoropropan-2-yl]sulfamoyl}phenyl)-1H-pyrrolo[2,3-b]pyridine-3-carboxamide]: 285 to 287 °C and less than 500 nM.
The matching figures for `CC(C)S(=O)(=O)Nc1ccc(-c2c(C(N)=O)c3cc(C(F)(F)F)cnc3n2C2CCCCC2)cc1` [Cpd 446, 1-cyclohexyl-2-{4-[(propan-2-ylsulfonyl)amino]phenyl}-5-(trifluoromethyl)-1H-pyrrolo[2,3-b]pyridine-3-carboxamide]: 203 to 205 °C and less than 500 nM.
The corresponding values for `CC1(S(=O)(=O)Nc2ccc(-c3c(C(N)=O)c4cc(C(F)(F)F)cnc4n3C3CCCCC3)cc2)CC1` [Cpd 447, 1-cyclohexyl-2-(4-{[(1-methylcyclopropyl)sulfonyl]amino}phenyl)-5-(trifluoromethyl)-1H-pyrrolo[2,3-b]pyridine-3-carboxamide] are 268 to 270 °C and less than 500 nM.
As for `NC(=O)c1c(-c2ccc(NS(=O)(=O)C3CC3)cc2)n(C2CCCCC2)c2ncc(C(F)(F)F)cc12` [Cpd 448, 1-cyclohexyl-2-{4-[(cyclopropylsulfonyl)amino]phenyl}-5-(trifluoromethyl)-1H-pyrrolo[2,3-b]pyridine-3-carboxamide], the melting point is 220 to 222 °C. For the same molecule, the IC50 in data set [1] lay within 500 to 2000 nM.
The matching figures for `NC(=O)c1c(-c2ccc(NS(=O)(=O)C3CCC3)cc2)n(C2CCCCC2)c2ncc(C(F)(F)F)cc12` [Cpd 449, 2-{4-[(cyclobutylsulfonyl)amino]phenyl}-1-cyclohexyl-5-(trifluoromethyl)-1H-pyrrolo[2,3-b]pyridine-3-carboxamide]: 256 to 258 °C and 500 to 2000 nM.
The corresponding values for `Cc1cnc2c(c1)c(C#N)c(-c1ccc(S(=O)(=O)N[C@@H](C)C(F)(F)F)cn1)n2-c1nccs1` [Cpd 450, 6-[3-cyano-5-methyl-1-(1,3-thiazol-2-yl)-1H-pyrrolo[2,3-b]pyridin-2-yl]-N-[(2S)-1,1,1-trifluoropropan-2-yl]pyridine-3-sulfonamide] are 208 to 210 °C and less than 500 nM.
The matching figures for `C[C@H](NS(=O)(=O)c1ccc(-c2c(C#N)c3cc(C(F)F)cnc3n2C2CCC2)nc1)C(F)(F)F` [Cpd 452, 6-[3-cyano-1-cyclobutyl-5-(difluoromethyl)-1H-pyrrolo[2,3-b]pyridin-2-yl]-N-[(2S)-1,1,1-trifluoropropan-2-yl]pyridine-3-sulfonamide]: 158 to 159 °C and less than 500 nM.
Turning to `C[C@H](NS(=O)(=O)c1ccc(-c2c(C#N)c3cc(C(F)F)cnc3n2C2CCC2)cc1)C(F)(F)F` [Cpd 453, 4-[3-cyano-1-cyclobutyl-5-(difluoromethyl)-1H-pyrrolo[2,3-b]pyridin-2-yl]-N-[(2S)-1,1,1-trifluoropropan-2-yl]benzenesulfonamide], the melting point was 203 to 205 °C. Moreover, in data set [1], the IC50 is less than 500 nM.
As to `C[C@H](NS(=O)(=O)c1cnc(-c2c(C#N)c3cc(C(F)F)cnc3n2C2CCC2)nc1)C(F)(F)F` [Cpd 454, 2-[3-cyano-1-cyclobutyl-5-(difluoromethyl)-1H-pyrrolo[2,3-b]pyridin-2-yl]-N-[(2S)-1,1,1-trifluoropropan-2-yl]pyrimidine-5-sulfonamide], the melting point lay in the range of 155 to 156 °C. The molecule also gave an IC50 in data set [1] of less than 500 nM.
Turning to `CC(C)NS(=O)(=O)c1ccc(-c2c(C#N)c3cc(C(F)F)cnc3n2C2CCC2)nc1` [Cpd 455, 6-[3-cyano-1-cyclobutyl-5-(difluoromethyl)-1H-pyrrolo[2,3-b]pyridin-2-yl]-N-(propan-2-yl)pyridine-3-sulfonamide], the melting point lay within 189 to 190 °C. This molecule registered a concentration for half-maximal inhibition (IC50) in data set [1] of less than 500 nM.
`C[C@H](NS(=O)(=O)c1ccc(-c2c(C#N)c3cc(C(F)F)cnc3n2C2CCC2)nc1)C1CC1` [Cpd 458, 6-[3-cyano-1-cyclobutyl-5-(difluoromethyl)-1H-pyrrolo[2,3-b]pyridin-2-yl]-N-[(1S)-1-cyclopropylethyl]pyridine-3-sulfonamide] displayed a melting point of 164 to 165 °C. The molecule also had an IC50 in data set [1] of less than 500 nM.
The matching figures for `CC(C)S(=O)(=O)Nc1ccc(-c2c(C#N)c3cc(C(F)F)cnc3n2C2CCC2)cc1` [Cpd 459, N-{4-[3-cyano-1-cyclobutyl-5-(difluoromethyl)-1H-pyrrolo[2,3-b]pyridin-2-yl]phenyl}propane-2-sulfonamide]: 179 to 180 °C and less than 500 nM.
The corresponding values for `N#Cc1c(-c2ccc(NS(=O)(=O)C3CC3)cc2)n(C2CCC2)c2ncc(C(F)F)cc12` [Cpd 460, N-{4-[3-cyano-1-cyclobutyl-5-(difluoromethyl)-1H-pyrrolo[2,3-b]pyridin-2-yl]phenyl}cyclopropanesulfonamide] are 193 to 195 °C and less than 500 nM.
The matching figures for `C[C@H](NS(=O)(=O)c1ccc(-c2c(C#N)c3cc(F)cnc3n2-c2cc(F)ccn2)nc1)C(F)(F)F` [Cpd 461, 6-[3-cyano-5-fluoro-1-(4-fluoropyridin-2-yl)-1H-pyrrolo[2,3-b]pyridin-2-yl]-N-[(2S)-1,1,1-trifluoropropan-2-yl]pyridine-3-sulfonamide]: 186 to 188 °C and less than 500 nM.
In the case of `C[C@H](NS(=O)(=O)c1ccc(-c2c(C#N)c3cc(F)cnc3n2-c2ncc(F)cn2)nc1)C(F)(F)F` [Cpd 462, 6-[3-cyano-5-fluoro-1-(5-fluoropyrimidin-2-yl)-1H-pyrrolo[2,3-b]pyridin-2-yl]-N-[(2S)-1,1,1-trifluoropropan-2-yl]pyridine-3-sulfonamide], the melting point lay in the range of 180 to 182 °C. Further, in data set [1], the IC50 is less than 500 nM.
The matching figures for `Cc1cnc2c(C#N)c(-c3ccc(S(=O)(=O)N[C@@H](C)C(F)(F)F)cn3)n(-c3cnccn3)c2c1` [Cpd 463, 6-[3-cyano-6-methyl-1-(pyrazin-2-yl)-1H-pyrrolo[3,2-b]pyridin-2-yl]-N-[(2S)-1,1,1-trifluoropropan-2-yl]pyridine-3-sulfonamide]: 288 to 289 °C and less than 500 nM.
The corresponding values for `Cc1cnc2c(C#N)c(-c3ccc(S(=O)(=O)N[C@@H](C)C(F)(F)F)cn3)n(-c3cncnc3)c2c1` [Cpd 464, 6-[3-cyano-6-methyl-1-(pyrimidin-5-yl)-1H-pyrrolo[3,2-b]pyridin-2-yl]-N-[(2S)-1,1,1-trifluoropropan-2-yl]pyridine-3-sulfonamide] are 229 to 230 °C and 2000 to 5000 nM.
The matching figures for `Cc1cnc2c(C#N)c(-c3ccc(S(=O)(=O)N[C@@H](C)C(F)(F)F)cn3)n(-c3ccccn3)c2c1` [Cpd 465, 6-[3-cyano-6-methyl-1-(pyridin-2-yl)-1H-pyrrolo[3,2-b]pyridin-2-yl]-N-[(2S)-1,1,1-trifluoropropan-2-yl]pyridine-3-sulfonamide]: 242 to 244 °C and less than 500 nM.
The molecule `Cc1cnc2c(C#N)c(-c3ccc(S(=O)(=O)N[C@@H](C)C(F)(F)F)cn3)n(-c3cccnc3)c2c1` [Cpd 466, 6-[3-cyano-6-methyl-1-(pyridin-3-yl)-1H-pyrrolo[3,2-b]pyridin-2-yl]-N-[(2S)-1,1,1-trifluoropropan-2-yl]pyridine-3-sulfonamide] displayed a melting point of 278 to 279 °C. This molecule showed an IC50 in data set [1] of less than 500 nM.
The corresponding values for `Cc1cnc2c(C#N)c(-c3ccc(S(=O)(=O)N[C@@H](C)C(F)(F)F)cn3)n(-c3ccc(F)cn3)c2c1` [Cpd 467, 6-[3-cyano-1-(5-fluoropyridin-2-yl)-6-methyl-1H-pyrrolo[3,2-b]pyridin-2-yl]-N-[(2S)-1,1,1-trifluoropropan-2-yl]pyridine-3-sulfonamide] are 263 to 265 °C and less than 500 nM.
Take `Cc1cnc2c(C#N)c(-c3ccc(S(=O)(=O)N[C@@H](C)C(F)(F)F)cn3)n(-c3cscn3)c2c1` [Cpd 468, 6-[3-cyano-6-methyl-1-(1,3-thiazol-4-yl)-1H-pyrrolo[3,2-b]pyridin-2-yl]-N-[(2S)-1,1,1-trifluoropropan-2-yl]pyridine-3-sulfonamide]: the melting point lay within 244 to 245 °C. Besides, the IC50 in data set [1] was less than 500 nM.
The matching figures for `C[C@H](NS(=O)(=O)c1ccc(-c2c(C(N)=O)c3cc(C(F)F)cnc3n2C2CCC2)nc1)C(F)(F)F` [Cpd 469, 1-cyclobutyl-5-(difluoromethyl)-2-(5-{[(2S)-1,1,1-trifluoropropan-2-yl]sulfamoyl}pyridin-2-yl)-1H-pyrrolo[2,3-b]pyridine-3-carboxamide]: 206 to 208 °C and less than 500 nM.
On to `C[C@H](NS(=O)(=O)c1cnc(-c2c(C(N)=O)c3cc(C(F)F)cnc3n2C2CCC2)nc1)C(F)(F)F` [Cpd 470, 1-cyclobutyl-5-(difluoromethyl)-2-(5-{[(2S)-1,1,1-trifluoropropan-2-yl]sulfamoyl}pyrimidin-2-yl)-1H-pyrrolo[2,3-b]pyridine-3-carboxamide], for which the melting point lay within 199 to 201 °C. The IC50 in data set [1] is less than 500 nM.
